Reference: patent US20160081980A1, “Composition Comprising AMD3100 For Preventing or Treating Bone Diseases” (KYUNGPOOK NATIONAL UNIVERSITY INDUSTRY-ACADEMIC COOPERATION …, priority 2013, published 2016)

Legend:
SDF-1 = settings: AMD3100 5 mg/kg/day intraperitoneal for 21 days vs PBS
[1] = test system: Osteocalcin, PTHR1, Osterix, Runx2; settings: bone marrow of OVX and control mice, real-time PCR; FIG. 4
OVX mice [2] = settings: AMD3100-treated OVX mice compared to PBS-treated OVX mice, 21 days; FIG. 5
Method: 12-week-old female C57BL/6 mice were purchased from Jackson Laboratory (Bar Harbor, ME). Mice were housed in an air-conditioned room with a 12 hour light/dark cycle at a temperature of 22±2° C. and humidity of 45-65%, and given free access to food and tap water. Mice underwent either sham surgery or ovariectomy (OVX) at 12 weeks of age and were sacrificed at 16 weeks of age. One week after surgery, sham-operated and OVX mice received an intraperitoneal injection with AMD3100 (Sigma-Aldrich #A5602, St. Louis, Mo., sigma Aldrich.com) (5 mg/kg/day) or PBS for 21 days. At the end of treatment, the mice were sacrificed, and blood samples were collected by cardiac puncture for the colony-forming unit (CFU) assay.
Single-cell suspensions of peripheral blood (PB) after ammonium chloride lysis were plated into 35 mm dishes (3×10^5 cells/plate) with MethoCult GF M3434 (StemCell Technologies). Hematopoietic colonies were counted and scored after incubation for 12-14 days at 37° C., 5% CO2, as instructed by the manufacturer.
In order to determine whether AMD3100 may mobilize HSPCs from bone marrow in OVX mice, AMD3100 or PBS was administered to OVX mice for 21 days.

OVX mice [3] = settings: AMD3100-treated vs PBS-treated OVX mice; did not reach statistical significance; FIGS. 6 & 7
Method: 12-week-old female C57BL/6 mice were purchased from Jackson Laboratory (Bar Harbor, ME). Mice were housed in an air-conditioned room with a 12 hour light/dark cycle at a temperature of 22±2° C. and humidity of 45-65%, and given free access to food and tap water. Mice underwent either sham surgery or ovariectomy (OVX) at 12 weeks of age and were sacrificed at 16 weeks of age. One week after surgery, sham-operated and OVX mice received an intraperitoneal injection with AMD3100 (Sigma-Aldrich #A5602, St. Louis, Mo., sigma Aldrich.com) (5 mg/kg/day) or PBS for 21 days. At the end of treatment, the mice were sacrificed, and blood samples were collected by cardiac puncture for the colony-forming unit (CFU) assay. Femora were removed, fixed with 4% paraformaldehyde in phosphate-buffered physiological saline solution (pH 7.4) for 16 hours, and then stored at 4° C. in 80% ethanol for measurement of bone density.
Bone marrow cells from the femurs and tibias were collected by flushing with 20 ml PBS passed through a 25-gauge needle. After centrifugation at 1,300 rpm for 5 minutes, the supernatant was removed and the cells were then washed by ammonium chloride lysis. […]

OVX mice [4] = settings: AMD3100-treated vs PBS-treated OVX mice
BM-derived macrophages = settings: RANKL 100 ng/ml, M-CSF 30 ng/ml, AMD3100 25 mg/ml for 3 days; FIG. 10
Method: Total RNA was extracted from BM cultures treated with or without RANKL in the presence or absence of AMD3100 (25 g/ml) for 3 days. […] RNA samples were extracted from whole bone marrow (BM) cells of four individual animals per group and isolated from the cultured cells using the RNeasy Mini kit (Qiagen, Hilden, Germany), and the concentration was determined using a Nanodrop ND-1000 spectrophotometer. A total of 5 mg of each RNA was converted to cDNA using the sprint RT complete-oligo (dT) 18 (Clontech, MountainView, Calif., www.clontech.com) according to the manufacturer's guide. The cDNA was quantified using the QuantiTect SYBR Green PCR Kit (Qiagen). The following reaction components were added to each investigated transcript to the indicated end-concentration: forward primer (5 pM), reverse primer (5 pM), and QuantiTect SYBR Green PCR Master mix. The 10 μl master-mix was added to a 0.1 ml tube, and 5 μl volume, containing 100 ng reverse transcribed total RNA, was added as polymerase chain reaction (PCR) template. The tubes were closed, centrifuged, and placed into the Corbett research RG-6000 real-time PCR machine (Corbett LifeScience, Sydney, Australia). The following primers were used: Bone marrow cells were obtained from the femurs and tibias of seven-week-old mice. The bone marrow suspension was added to plates along with macrophage colony stimulating factor (M-CSF; 30 ng/ml). […]

OVX mice [5] = test system: OVX mice

c1cc(CN2CCCNCCNCCCNCC2)ccc1CN1CCCNCCNCCCNCC1 [AMD3100, 1,1′-[1,4-Phenylenebis(methylene)]bis[1,4,8,1]-tetraazacyclotetradecanel]
levels of functional SDF-1 in bone marrow (SDF-1; bone marrow supernatant, FIG. 2): decreased | levels of functional SDF-1 in plasma (SDF-1; plasma, FIG. 3): increased | levels of osteoblast lineage-specific genes (Osteocalcin, PTHR1, Osterix, Runx2) [1]: no significant differences | number of CFU cells in blood (OVX mice [2]): significant increase | percentage of Lin-Sca-1+c-Kit+ (LSK) cells in bone marrow (OVX mice [3]): decrease | bone density in micro-CT images of the distal femur (OVX mice [4]; FIG. 8): increased bone density | bone mineral density (BMD) (OVX mice [4]; FIG. 9): increase | osteoclast differentiation (expression of genes associated with osteoclast differentiation) (BM-derived macrophages): did not affect osteoclast differentiation | osteoblast number/bone surface [N.Ob/BS (/mm)] (OVX mice [5]; H&E staining, AMD3100 treatment groups, FIG. 13): did not change significantly | number and size of TRAP+ active osteoclasts in the trabecular region (OVX mice [5]; TRAP staining, AMD3100-treated OVX mice, FIG. 11): decrease | osteoclast number/bone surface [N.Oc/BS (/mm)] (OVX mice [5]; histomorphometry, AMD3100-treated vs PBS-treated OVX mice, FIG. 12): decrease
